Values after ≈ are worked out from the molar mass of the structure shown.
What was measured:
[1] = tested on: Poliovirus type 1 (Polio 1, Sabin); experiment: microbe, parasite or virus in culture; format: cell-based
[2] = tested on: echovirus type 11 (Echo 11, Gregory); experiment: In vitro anti-picornavirus activity (MTT), Echo 11; format: cell-based; details: HeLa-S3 cells, MTT method, 37° C.
[3] = tested on: coxsackievirus type A7 (CA7); experiment: In vitro anti-picornavirus activity (MTT), CA7; format: cell-based; details: HeLa-S3 cells, MTT method, 37° C.
[4] = tested on: coxsackievirus type B4 (CB4,JVB); experiment: In vitro anti-picornavirus activity (MTT), CB4; format: cell-based; details: HeLa cells, MTT method, 37° C.
[5] = tested on: human rhinovirus type 1B (HRV 1B, B632); experiment: Anti-rhinovirus activity (MTT), HRV1B; format: cell-based; details: HeLa (Ohio strain) cells, MTT method, 33° C.
HRV 2 (HGP) = experiment: Anti-rhinovirus activity (MTT), HRV2; format: cell-based, human rhinovirus; details: HeLa (Ohio strain) cells, MTT method, 33° C.
HRV 89 (41617-Gallo) = experiment: Anti-rhinovirus activity (MTT), HRV89; format: cell-based, human rhinovirus; details: HeLa (Ohio strain) cells, MTT method, 33° C.
HeLa cells = experiment: Cytotoxicity (MTT, without virus), HeLa; details: HeLa, no virus, incubated for 4 days
HeLa-S3 cells = experiment: Cytotoxicity (MTT, without virus), HeLa-S3; details: HeLa-S3, no virus, incubated for 4 days
HeLa (Ohio strain)cells = experiment: Cytotoxicity (MTT, without virus), HeLa(Ohio); details: HeLa(Ohio), no virus, incubated for 4 days

Structure (SMILES)	IC50 Polio 1 [1] [µg/mL]	IC50 Echo 11 [2] [µg/mL]	IC50 CA7 [3] [µg/mL]	IC50 CB4 [4] [µg/mL]	IC50 HRV1B [5] [µg/mL]	IC50 HRV2 (HRV 2 (HGP)) [µg/mL]	IC50 HRV89 (HRV 89 (41617-Gallo)) [µg/mL]	Cytotoxicity CC50 HeLa (HeLa cells) [µg/mL]	Cytotoxicity CC50 HeLa-S3 (HeLa-S3 cells) [µg/mL]	Cytotoxicity CC50 HeLa(Ohio) (HeLa (Ohio strain)cells) [µg/mL]
CCn1c(-c2cccs2)c(C)c(=O)c2cc(C(C)C)ccc21 [Compound A311]	0.67 (≈ 2.15 µM)	0.42 (≈ 1.35 µM)	3.3 (≈ 10.6 µM)	2.0 (≈ 6.42 µM)	1.0 (≈ 3.21 µM)	0.53 (≈ 1.7 µM)	1.2 (≈ 3.85 µM)	6.8	>10	>10
CC(C)c1ccc2c(c1)c(=O)cc(-c1ccco1)n2C [Compound A303]	1.4 (≈ 5.24 µM)	0.83 (≈ 3.1 µM)	6.5 (≈ 24.3 µM)	3.6 (≈ 13.5 µM)	1.4 (≈ 5.24 µM)	0.97 (≈ 3.63 µM)	1.9 (≈ 7.11 µM)	>20	>20	>20
Cc1cc2c(cc1OCC(C)C)c(=O)c(C)c(-c1ccccc1)n2C [Compound A234]	0.89 (≈ 2.65 µM)	0.25 (≈ 0.745 µM)	3.8 (≈ 11.3 µM)	2.5 (≈ 7.45 µM)	1.0 (≈ 2.98 µM)	0.26 (≈ 0.775 µM)	0.32 (≈ 0.954 µM)	>5	>5	>5
Cc1c(-c2cccs2)n(C)c2ccc(OCC(C)C)c(C)c2c1=O [Compound A318]	0.47 (≈ 1.38 µM)	0.27 (≈ 0.791 µM)	2.0 (≈ 5.86 µM)	0.65 (≈ 1.9 µM)	0.45 (≈ 1.32 µM)	0.38 (≈ 1.11 µM)	0.16 (≈ 0.469 µM)	>2.5	>2.5	>2.5
CCn1c(-c2ccccc2)c(C)c(=O)c2cc(-c3ccccc3)ccc21 [Compound A171]	0.52 (≈ 1.53 µM)	0.22 (≈ 0.648 µM)	1.9 (≈ 5.6 µM)	2.0 (≈ 5.89 µM)	0.43 (≈ 1.27 µM)	0.76 (≈ 2.24 µM)	0.39 (≈ 1.15 µM)	>2.5	>2.5	>2.5
CCCc1ccc2c(c1)c(=O)c(C)c(-c1ccccc1)n2CC [Compound A30]	1.0 (≈ 3.27 µM)	0.42 (≈ 1.38 µM)	1.2 (≈ 3.93 µM)	1.8 (≈ 5.89 µM)	1.6 (≈ 5.24 µM)	0.48 (≈ 1.57 µM)	1.0 (≈ 3.27 µM)	6.0	6.5	5.8
CCn1c(-c2ccccc2)c(C)c(=O)c2cc(OCC(C)C)ccc21 [Compound A130]	0.86 (≈ 2.56 µM)	0.32 (≈ 0.954 µM)	0.17 (≈ 0.507 µM)	>4	0.90 (≈ 2.68 µM)	0.65 (≈ 1.94 µM)	0.72 (≈ 2.15 µM)	>4	>4	>4
CCn1c(-c2ccccc2)c(C)c(=O)c2ccc(C(C)C)cc21 [Compound A122]	1.2 (≈ 3.93 µM)	0.54 (≈ 1.77 µM)	6.9 (≈ 22.6 µM)	5.5 (≈ 18 µM)	0.59 (≈ 1.93 µM)	0.43 (≈ 1.41 µM)	0.35 (≈ 1.15 µM)	>10	>10	>10

Reference: patent US7109338B2, “1,2-disubstituted 1,4-dihydro-4-oxoquinoline compounds” (priority 1999, dated 2006)
